{"source": "patent US20250000940A1", "about": "“USE OF FRUCTUS LYCII GLUCOPEPTIDE” (NINGXIA QITAI TECHNOLOGY CO., LTD., priority 2021, published 2025)", "type_in_all_cases": "in vivo, Kunming mice", "key": {"MPTP model mice [1]": {"tested_on": "MPTP model mice", "experiment": "Pole-climbing test in MPTP model mice", "settings": "intragastric for 2 weeks after modeling, 30 mg/kg (rasagiline 1 mg/kg), vs. MPTP group, n=6, FIG. 2", "method": "Administration method: the mice were randomly divided into 6 groups with 6 mice in each group, i.e., the control group, the MPTP model group (intraperitoneal injection of MPTP, 30 mg/kg, established after five days of administration and two days of rest), the MPTP+Fructus lycii extract (water extraction) group (administration after modeling, 30 mg/kg, intragastric administration for two weeks), the MPTP+Fructus lycii polysaccharide group (administration after modeling, 30 mg/kg, intragastric administration for two weeks), the MPTP+Fructus lycii glucopeptide group (administration after modeling, 30 mg/kg, intragastric administration for 2 weeks), the MPTP+rasagiline group (administration after modeling, 1 mg/kg, intragastric administration for 2 weeks). Instruction: the pole-climbing test is a behavioral test to record the time difference of mice on the pole so as to detect the limb movement coordination of mice. The whole experiment was completed in a quiet and dark environment. The pole was composed of an iron frame with a diameter of 1 cm and a height of 60 cm and a small ball with a diameter of 1.5 cm fixed on its top. […] The time required for the mice to climb to the bottom from the beginning was recorded. If the time exceeded 1 minute, it was recorded as 1 minute. Each mouse was tested for 5 rounds each time, and the results were expressed as the average values."}, "MPTP model mice [2]": {"tested_on": "MPTP model mice", "experiment": "Rotarod test in MPTP model mice", "settings": "intragastric for 2 weeks after modeling, 30 mg/kg (rasagiline 1 mg/kg), vs. MPTP group, n=6, FIG. 3", "procedure": "Instruction: rotarod test was used to detect the motor coordination ability of mice by recording the time of the mice on the cylindrical rotarod using the rotarod fatigue apparatus. The test was conducted in a quiet and dark environment. The rotarod fatigue apparatus can accommodate five mice at a time for the test. Each mouse has a separate track, with a connected computer software for recording the time when the mouse falls. When the mouse rotates passively with the rotarod for more than two consecutive circles, the timing should also be stopped. Before restraint stress, the mice were trained for a week in advance to adapt, and each mouse was trained for three rounds every time. After restraint stress, the mice were detected once a week, and the parameter was set at a speed ramp from 5 r/min to 30 r/min at a constant rate within 5 min. The time of the mice on the rotarod within 5 min was recorded, and the time exceeding 5 min was recorded as 5 min. Each mouse was detected for 3 rounds each time, and the average value was calculated. The test interval of each group of mice was at least 30 min. Before each change of the mice, the apparatus was cleaned with 75% ethanol to remove the odor before the next group of test."}, "MPTP model mice [3]": {"tested_on": "MPTP model mice", "experiment": "CatWalk gait analysis in MPTP model mice", "settings": "intragastric for 2 weeks after modeling, 30 mg/kg (rasagiline 1 mg/kg), vs. MPTP group, n=6, FIG. 4-7", "source_text": "Instruction: CatWalk gait analysis is a system for analyzing the gait of rodents, including the balance maintenance ability, the use of limbs and the stability analysis of movement state and gait. The main accessories include built-in red LED light panel and green fluorescent glass panel, high-frequency camera under the glass panel, image transmission system and computer software and hardware. Before inspection, the camera height will be adjusted to 60 cm, the effective length and width of the runway will be delimited in the software, and the gain of the camera will be set to 28.12 dB. The process of each mouse passing through the glass plate smoothly was recorded at room temperature, and the longest time was set to 10 s, that is, the data was valid if the mouse passed through the set distance within 10 s. The principle of recording is that the paw prints of mice are illuminated by the fluorescent reflection of the fluorescent lamp in the glass panel, captured by the camera below and transmitted to the computer, and the recorded video data are statistically analyzed by the software of the system. According to the location of paw print, the pressure of paw on the glass panel, the distance between different paw prints, the velocity of mouse gait and the regularity of gait, the gait of mice was qualitatively and quantitatively analyzed. […]"}}}
{"smiles": "C#CCN[C@@H]1CCc2ccccc21", "note": "[rasagiline, Rasagiline]", "values": [{"measurement": "pole-climbing time (time to climb from top to bottom of the pole)", "setting": "MPTP model mice [1]", "value": "significantly shorten the pole-climbing time"}, {"measurement": "on-rod time (anti-fatigue time on the rotarod)", "setting": "MPTP model mice [2]", "value": "significantly restore the on-rod time"}, {"measurement": "gait behavior (average speed, maximum variation, cadence, number of steps)", "setting": "MPTP model mice [3]", "value": "significantly restore the gait behavior disorder"}]}
